{"source": "patent US20040037806A1", "about": "“Aldosterone blocker therapy to prevent or treat inflammation-related disorders” (Pharmacia Corporation, priority 2002, published 2004)", "type_in_all_cases": "in vivo, rat", "key": {"[1]": {"system": "Intercellular Adhesion Molecule-1 (ICAM-1)", "test": "Assay C: ICAM-1 mRNA, TaqMan", "conditions": "aldosterone+salt alone or with eplerenone 100 mg/kg/day; 7, 14, 30 days", "protocol": "The procedure of Assay B was expanded upon in a further study. […] Myocardial tissue from animals in each treatment group was examined after 7, 14, or 30 days of treatment.\nPotassium chloride supplementation was added to the saline solution in order to prevent the potential hypokalemia associated with aldosterone excess.\nTreatment At the time of the surgery, an Alzet 2002 osmotic minipump (Alza Corp., Palo Alto, Calif.) containing either vehicle (9% ethanol/87% propylene glycol/4% dH2O) or 1.0 mg/mL d-aldosterone (Sigma Chemical, St. Louis, Mo.) was inserted subcutaneously at the nape of the neck. Aldosterone was administered at a dose of 0.75 µg/hour. […]\nThe fluorogenic 5′-nuclease assay (TaqMan PCR) using Applied Biosystems' 7700 Sequence Detection System (Applied Biosystems, Foster City, Calif.) allowed for real time detection/quantitation of a specific gene by monitoring the increase in fluorescence of a gene-specific, dye-labeled oligonucleotide probe. […] When the probe was annealed to the target gene, fluorescence of 6FAM was prevented by the close proximity of TAMRA. The exonuclease activity of Taq polymerase released the dyes from the oligonucleotide probe by displacing the probe from the target sequence resulting in fluorescence excitation in direct proportion to the amount of target message present. […]"}, "osteopontin [2]": {"system": "osteopontin", "test": "Assay B: osteopontin immunohistochemistry in the heart", "conditions": "aldosterone-infused, saline-drinking, uninephrectomized rats, eplerenone 100 mpk p.o, increased dietary potassium", "protocol": "Assay B: In Vivo Aldosterone Infusion Model\nDetermination of osteopontin and COX-2 was performed by quantitative RT-PCR (Taqman). Osteopontin was also identified in the heart by immunohistochemistry."}, "COX-2": {"system": "COX-2", "test": "Assay B: COX-2 mRNA by quantitative RT-PCR (Taqman)", "protocol": "Assay B: In Vivo Aldosterone Infusion Model Determination of osteopontin and COX-2 was performed by quantitative RT-PCR (Taqman). Osteopontin was also identified in the heart by immunohistochemistry."}, "osteopontin [3]": {"system": "osteopontin", "test": "Assay A: osteopontin immunostaining of hearts", "conditions": "angiotensin II-infused, saline-drinking Wistar rats; eplerenone 100 mpk; aldosterone replacement in adrenalectomized rats"}, "[4]": {"test": "Assay C: myocardial hydroxyproline colorimetric assay", "conditions": "7 days of treatment; myocardium; aldosterone + salt alone or with eplerenone 100 mg/kg/day; individual rats and group Mean", "protocol": "The procedure of Assay B was expanded upon in a further study. […] Myocardial tissue from animals in each treatment group was examined after 7, 14, or 30 days of treatment. […] Lesions were preceded by the expression and progressive upregulation of proinflammatory molecules. […] Prior to surgery the animals were individually weighed and placed in one of the following groups: […] Potassium chloride supplementation was added to the saline solution in order to prevent the potential hypokalemia associated with aldosterone excess. Treatment At the time of the surgery, an Alzet 2002 osmotic minipump (Alza Corp., Palo Alto, Calif.) containing either vehicle (9% ethanol/87% propylene glycol/4% dH2O) or 1.0 mg/mL d-aldosterone (Sigma Chemical, St. Louis, Mo.) was inserted subcutaneously at the nape of the neck. Aldosterone was administered at a dose of 0.75 µg/hour. […] Animals were sacrificed from each group (n=8-13) after 7, 14, or 30 days of treatment. Myocardial hydroxyproline concentration was measured by a colorimetric assay that quantifies the reaction between oxidized hydroxyproline, and p-dimethylaminobenzaldehyde as described previously (4). […] Samples were incubated at 60° C. for 30 min, cooled to room temperature, and absorbance was monitored at 558 nm. Hydroxyproline content was quantitated from a freshly prepared standard curve of trans-4-hydroxy-L-proline (Sigma, St. Louis, Mo.). […]"}, "osteopontin [5]": {"system": "osteopontin", "test": "Assay B: serum osteopontin levels at 28 days", "conditions": "NaCl 1% drinking rats with aldosterone and eplerenone"}, "[6]": {"test": "Urinary protein excretion in angiotensin II infused, captopril treated stroke prone spontaneously hypertensive rats", "conditions": "captopril treated stroke prone spontaneously hypertensive rats (FIG. 35)"}, "[7]": {"test": "Histopathological scores for renal injury in angiotensin II infused, captopril treated stroke prone spontaneously hypertensive rats", "conditions": "captopril treated stroke prone spontaneously hypertensive rats (FIG. 36)"}}, "note": "“And” between values parts separate entries of the source, which are not always exact repeats. Equal values may be shown once. “Also recorded” adds a separate entry of the source.", "data": [{"smiles": "C[C@]12CCC(=O)C=C1CC[C@@H]1[C@@H]2[C@@H](O)C[C@]2(C=O)[C@@H](C(=O)CO)CC[C@@H]12", "note": "[aldosterone]", "values": [{"measurement": "ICAM-1 mRNA expression in myocardium", "setting": "[1]", "value": "upregulated at day 14 and 30"}, {"measurement": "Osteopontin expression in the heart (immunostaining)", "setting": "osteopontin [2]", "value": "clearly identified in the media of coronary arteries"}, {"measurement": "Increase of COX-2 mRNA expression vs control", "setting": "COX-2; aldosterone/salt+vehicle treatment", "value": 3, "unit": "fold"}, {"measurement": "COX-2 relative mRNA expression in the heart", "setting": "COX-2; aldosterone/salt-treated rats, 4 weeks, vehicle or eplerenone 100 mpk p.o, control 1.2±0.12", "value": "3.7±0.46"}, {"measurement": "Osteopontin expression in the heart (immunostaining)", "setting": "osteopontin [3]", "value": "restored osteopontin expression"}]}, {"smiles": "COC(=O)[C@@H]1CC2=CC(=O)CC[C@]2(C)[C@@]23O[C@@H]2C[C@@]2(C)[C@@H](CC[C@@]24CCC(=O)O4)[C@H]13", "note": "[eplerenone]", "values": [{"measurement": "ICAM-1 mRNA expression in myocardium", "setting": "[1]", "value": "significantly reduced; also recorded: inhibition of early time-course expression of myocardial ICAM-1 and VCAM-1"}, {"measurement": "Hydroxyproline", "setting": "[4]", "value": "4.08 µg/mg and 2.41 µg/mg"}, {"measurement": "Osteopontin expression in the heart (immunostaining)", "setting": "osteopontin [2]", "value": "prevention by eplerenone of induction of osteopontin expression; also recorded: prevention by eplerenone of osteopontin upregulation"}, {"measurement": "Osteopontin expression in the heart (immunostaining)", "setting": "osteopontin [2]; listed as Eplerenone", "value": "prevented the expression of osteopontin"}, {"measurement": "Osteopontin expression in the heart (immunostaining)", "setting": "osteopontin [3]", "value": "prevented osteopontin expression"}, {"measurement": "Circulating (serum) osteopontin levels", "setting": "osteopontin [5]", "value": "marked decrease in circulating osteopontin levels"}, {"measurement": "Urinary protein excretion", "setting": "[6]", "value": "inhibition of increased urinary protein excretion"}, {"measurement": "Histopathological scores for renal injury", "setting": "[7]", "value": "reduction in histopathological scores for renal injury"}]}]}
